Reference: ChEMBL document CHEMBL1122462, “Potential antiatherosclerotic agents. 4. [(Functionalized-alkyl)amino]benzoic acid analogues of cetaben” (1983)
Values joined by “and” are separate entries in the source; they are usually repeats but may differ in a detail not shown here. Equal values may be shown once.

What was measured:
Rattus norvegicus [1] = test: In vivo Sterol lowering activity at dose as 0.01% of the diet; format: functional
Rattus norvegicus [2] = test: In vivo sterol lowering activity, dosed as 0.03 % of the diet; format: functional
Rattus norvegicus [3] = test: In vivo Triglyceride lowering activity at dose as 0.03 % of the diet; format: functional
Rattus norvegicus [4] = test: In vivo Triglyceride lowering activity at a dose of 0.10 % of the diet; format: functional
Rattus norvegicus [5] = test: In vivo sterol lowering activity at dose of 0.10 % of the diet; format: functional
Rattus norvegicus [6] = test: In vivo Triglyceride lowering activity at dose as 0.01 % of the diet; format: functional
[7] = molecular target: T1, Sterol O-acyltransferase 1 (Rattus norvegicus) (UniProt O70536); test: In vitro inhibitory activity against acyl coenzyme A:cholesterol acyltransferase; design: concentration or dose not given beside the values; settings: concentration not given here
T1 sequence (whole entry): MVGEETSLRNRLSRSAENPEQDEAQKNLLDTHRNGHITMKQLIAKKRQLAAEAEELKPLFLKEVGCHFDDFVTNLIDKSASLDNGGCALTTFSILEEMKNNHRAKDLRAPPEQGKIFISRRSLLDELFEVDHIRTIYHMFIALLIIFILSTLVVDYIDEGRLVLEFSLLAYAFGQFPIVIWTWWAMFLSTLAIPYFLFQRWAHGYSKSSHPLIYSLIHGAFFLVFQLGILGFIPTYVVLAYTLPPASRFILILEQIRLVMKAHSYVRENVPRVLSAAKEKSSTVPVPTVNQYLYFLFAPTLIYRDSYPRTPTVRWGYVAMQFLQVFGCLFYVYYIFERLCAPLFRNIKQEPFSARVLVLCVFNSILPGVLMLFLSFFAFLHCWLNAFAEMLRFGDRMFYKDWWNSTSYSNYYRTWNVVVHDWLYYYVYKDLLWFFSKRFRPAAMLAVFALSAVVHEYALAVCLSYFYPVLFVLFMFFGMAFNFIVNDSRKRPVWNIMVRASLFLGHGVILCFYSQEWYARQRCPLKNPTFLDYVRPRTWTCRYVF

SMILES | serum sterol level, percent of control (Rattus norvegicus [1]) [%] | serum sterol level, percent of control (Rattus norvegicus [2]) [%] | triglyceride lowering activity (Rattus norvegicus [3]) [%] | serum triglyceride level (% of control) (Rattus norvegicus [4]) [%] | serum sterol level, % of control (Rattus norvegicus [5]) [%] | serum triglyceride level (% of control) (Rattus norvegicus [6]) [%] | inhibition [7]
O=C([O-])CCCCCCCCCCCCCCCNc1ccc(C(=O)[O-])cc1.[Na+].[Na+] | 102 | 102 | 97 | 132 | 106 | 93 | 
CCCCSCCCCCCCCCCC(=O)Nc1ccc(C(=O)OC)cc1 |  |  |  | 81 | 92 |  | < 56%
C[Si](C)(C)CCCCCCCCCCCCCCNc1ccc(C(=O)O)cc1 [listing 1 of 2 here] |  |  |  |  |  |  | < 60%
Br.CCOC(=O)c1ccc(NC(=O)CCCCCCCCCCSC(=N)N)cc1 |  |  |  | 96 | 92 |  | < 91%
O=C(O)c1ccc(NCCCCCCCCCCNc2ccc(C(=O)O)cc2)cc1 |  |  |  | 100 | 93 |  | 8%
CCOC(=O)c1ccc(NC(=O)C(F)(F)C(F)(F)C(F)(F)C(F)(F)C(F)(F)C(F)(F)C(F)(F)F)cc1 | <68 | <73 | <43 |  | <69 | <61 | 0%
CCOC(=O)c1ccc(NCCCCCCCCCCCCNc2ccc(C(=O)OCC)cc2)cc1 |  |  |  | <68 | 103 |  | 2%
CCCCCCCCCCCCCCCC(=O)Nc1ccc(C(=O)OCC)cc1 |  |  |  |  | 91 |  | 
CCCCCCCCCCC(C)(O)CCCCCNc1ccc(C(=O)OCC)cc1 (stereo unspecified) |  |  |  | <28 | <82 |  | < 59%
CCCCCCCCCCC(CCCCCNc1ccc(C(=O)OCC)cc1)SC(C)=O (stereo unspecified) |  |  |  | <46 | 94 |  | < 26%
CCOC(=O)c1ccc(NCCCCCCCCCCCNc2ccc(C(=O)OCC)cc2)cc1 |  |  |  | 67 | 92 |  | < 68%
COCCCCCCCCCCCCCCCCN(C(C)=O)c1ccc(C(=O)O)cc1 |  |  |  | 93 | 100 |  | < 22%
C[Si](C)(C)CCCCCCCCCCCCCCNc1ccc(C(=O)O)cc1 [listing 2 of 2 here] | <70 | <51 | <38 | <30 | <40 | <59 | 
C[Si](C)(C)CCCCCCCCCCCNc1ccc(C(=O)O)cc1 [listing 1 of 2 here] | <79 | <69 | <54 | <25 | <44 | <67 | 
C[Si](C)(C)CCCNc1ccc(C(=O)[O-])cc1.[Na+] | 87 | <82 | 85 | <77 | <64 | 102 | 
CCCCCCCCCCC(O)CCCCCNc1ccc(C(=O)O)cc1 (stereo unspecified) | 104 | 96 | <43 | <31 | <86 | <66 | 
CCOC(=O)c1ccc(NCCCCCCCCCCNc2ccc(C(=O)OCC)cc2)cc1 |  |  |  | 98 | 140 |  | 7%
CCCCCCCCCCC(O)CCCCCNc1ccc(C(=O)OCC)cc1 (stereo unspecified) |  |  |  | <39 | 93 |  | < 51%
CCOC(=O)c1ccc(NCCCCCCCCCCCCCCCCS)cc1 |  |  |  | <51 | 90 |  | 8%
CC(C)(C)CCCCCCCCCCCCCCNc1ccc(C(=O)O)cc1 |  |  |  |  |  |  | < 74%

SMILES | serum sterol level, percent of control (Rattus norvegicus [1]) [%] | serum sterol level, percent of control (Rattus norvegicus [2]) [%] | triglyceride lowering activity (Rattus norvegicus [3]) [%] | serum triglyceride level (% of control) (Rattus norvegicus [4]) [%] | serum sterol level, % of control (Rattus norvegicus [5]) [%] | serum triglyceride level (% of control) (Rattus norvegicus [6]) [%] | inhibition [7]
CCOC(=O)c1ccc(NCCCCCCCCCCCO)cc1 |  |  |  | 93 | 94 |  | < 60%
CCCCCCCCCCC(C)(O)CCCCCNc1ccc(C(=O)O)cc1 (stereo unspecified) |  |  |  | <37 | <73 |  | < 53%
COC(=O)c1ccc(NC(=O)CCCCCCCCCCOc2ccc(C(=O)OC)cc2)cc1 |  |  |  | 118 | 94 |  | < 63%
C[Si](C)(C)CCCCCCCCCCCNc1ccc(C(=O)O)cc1 [listing 2 of 2 here] |  |  |  |  |  |  | < 56%
O=C(O)c1ccc(NCCCCCCCCCCCCCCCC(F)(F)F)cc1 | <75 | <72 | <41 | <42 | <61 | <46 | 
O=C(O)c1ccc(NCCCCCCCCCCCSc2ccc(C(=O)O)cc2)cc1 |  | 104 | 92 | 78 | 98 |  | < 29%
CCOC(=O)c1ccc(NCCCCCCCCCCCOc2ccc(C(=O)OC)cc2)cc1 |  |  |  | <72 | 100 |  | < 52%
CCOC(=O)c1ccc(NC(=O)CCCCCCCCCCBr)cc1 |  |  |  | 100 | 115 |  | < 71%
O=C(O)c1ccc(NCCCCCCCCCCCCNc2ccc(C(=O)O)cc2)cc1 |  |  |  | 89 | 103 |  | < 60%
CCOC(=O)c1ccc(NCCCCCCCCCCCSc2ccc(C(=O)OCC)cc2)cc1 |  |  |  | 132 | 102 |  | < 45%
CCOC(=O)c1ccc(N(CCCCCCCCCCCBr)C(=O)OCc2ccccc2)cc1 |  |  |  | 91 | 100 |  | < 71%
O=C(O)c1ccc(N2CCCC2=O)cc1 |  |  |  |  |  |  | 0%
O=C(O)CCCCCCCCCCCCCCCNc1ccc(C(=O)O)cc1 |  |  |  |  |  |  | 0% and 9%
CCCCOCCCCCCCCCCCNc1ccc(C(=O)O)cc1 | <86 |  |  | <44 | 91 | 74 | < 62%
CCCCCCCCCCC(S)CCCCCNc1ccc(C(=O)O)cc1 (stereo unspecified) |  |  |  | <43 | 84 |  | < 79%
CCOC(=O)c1ccc(NCCCCCCCCCCCC2CCCCC2)cc1 |  |  |  | <50 | 80 |  | 12%
CCCCCCCCCCCCCCCCN(CS(=O)(=O)O)c1ccc(C(=O)O)cc1 |  |  |  |  |  |  | 7% and < 32%
CCOC(=O)c1ccc(NCCCCCCCCCCCCCCCCSCC)cc1 |  |  |  | <58 | <89 |  | < 10%
C[Si](C)(C)CCCNc1ccc(C(=O)O)cc1 |  |  |  |  |  |  | < 23% and 12%
